Measurements reported in patent US20250136553A1, “ACYLSULFONAMIDE KAT6A INHIBITORS” (Olema Pharmaceuticals, Inc., priority 2023, published 2025).

The compounds below were run against human-KAT6A (MYST domain 507-778 aa) (Homo sapiens (Human), UniProt Q92794) (assay: KAT6A biochemical assay (TR-FRET)). Conditions: @ 1 μM; reported where IC50 could not be determined; read-out: Percent inhibition at specific concentration (KAT6A).
Method in brief: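 KAT6A MYST domain preincubated with compound 30 min at 25° C, then reacted 60 min at 25° C with 200 nM biotin-H4 peptide and 600 nM acetyl-CoA (final). Europium anti-acetyl-lysine/streptavidin-APC TR-FRET read (Ex 340, Em 615/665 nm); % inhibition from 665/615 ratio, IC50 by sigmoidal fit.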

human-KAT6A (MYST domain 507-778 aa), sequence (Q92794 507-778): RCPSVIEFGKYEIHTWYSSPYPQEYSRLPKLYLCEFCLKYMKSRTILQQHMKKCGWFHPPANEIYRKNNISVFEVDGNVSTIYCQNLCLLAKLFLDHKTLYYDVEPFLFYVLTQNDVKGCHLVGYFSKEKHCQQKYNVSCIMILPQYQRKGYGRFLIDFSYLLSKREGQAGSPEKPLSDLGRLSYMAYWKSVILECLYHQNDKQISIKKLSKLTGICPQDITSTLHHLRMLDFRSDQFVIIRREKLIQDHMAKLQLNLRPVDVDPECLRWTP

inhibition at 1 µM	SMILES
25%	COc1ccc(C(C)(C)C)cc1S(=O)(=O)NC(=O)c1ccc(Cn2cccn2)c(=O)n1C [Compound 278, 5-((1H-pyrazol-1-yl)methyl)-N-((5-(tert-butyl)-2-methoxyphenyl)sulfonyl)-1-methyl-6-oxo-1,6-dihydropyridine-2-carboxamide]
47%	CN=S(=O)(NC(=O)c1ccc(Cn2cccn2)c(OC)c1)c1c(OC)cccc1OC (stereo not shown) [Compound 292, 4-((1H-pyrazol-1-yl)methyl)-N-((2,6-dimethoxyphenyl)(methylamino)(oxo)-16-sulfaneylidene)-3-methoxybenzamide]

Same assay, conditions: TR-FRET; histone H4 peptide 200 nM, acetyl-CoA 600 nM; read-out: KAT6A IC50

SMILES	IC50
COc1cccc(OC2CC2)c1S(=O)(=O)NC(=O)c1ccc(Cn2cccn2)c(OC)n1 [Compound 279, 5-((1H-pyrazol-1-yl)methyl)-N-((2-cyclopropoxy-6-methoxyphenyl)sulfonyl)-6-methoxypicolinamide]	14 nM
COc1nc(C(=O)NS(=O)(=O)c2cc(C(C)(C)C)cc3c2OCC3)ccc1Cn1cccn1 [Compound 280, 5-((1H-pyrazol-1-yl)methyl)-N-((5-(tert-butyl)-2,3-dihydrobenzofuran-7-yl)sulfonyl)-6-methoxypicolinamide]	5 nM
COc1ccc2c(c1S(=O)(=O)NC(=O)c1ccc(Cn3cccn3)c(OC)n1)OCO2 [Compound 281, 5-((1H-pyrazol-1-yl)methyl)-6-methoxy-N-((5-methoxybenzo[d][1,3]dioxol-4-yl)sulfonyl)picolinamide]	10 nM
COc1cc(F)cc(OC)c1S(=O)(=O)NC(=O)c1ccc(Cn2cccn2)c(OC)n1 [Compound 282, 5-((1H-pyrazol-1-yl)methyl)-N-((4-fluoro-2,6-dimethoxyphenyl)sulfonyl)-6-methoxypicolinamide]	14 nM
CCOc1ccc(CC)c(OC)c1S(=O)(=O)NC(=O)c1ccc(Cn2cccn2)c(OC)n1 [Compound 284, 5-((1H-pyrazol-1-yl)methyl)-N-((6-ethoxy-3-ethyl-2-methoxyphenyl)sulfonyl)-6-methoxypicolinamide]	10 nM
COc1cc(Br)cc(OC)c1S(=O)(=O)NC(=O)c1ccc(Cn2cccn2)c(OC)n1 [Compound 285, 5-((1H-pyrazol-1-yl)methyl)-N-((4-bromo-2,6-dimethoxyphenyl)sulfonyl)-6-methoxypicolinamide]	6 nM
COc1cc(C)c(S(=O)(=O)NC(=O)c2ccc(Cn3cccn3)c(OC)n2)c(OC)c1 [Compound 286, 5-((1H-pyrazol-1-yl)methyl)-N-((2,4-dimethoxy-6-methylphenyl)sulfonyl)-6-methoxypicolinamide]	11 nM
COc1nc(C(=O)NS(=O)(=O)c2cc(C(F)(F)F)cc3c2OCC3)ccc1Cn1cccn1 [Compound 287, 5-((1H-pyrazol-1-yl)methyl)-6-methoxy-N-((5-(trifluoromethyl)-2,3-dihydrobenzofuran-7-yl)sulfonyl)picolinamide]	11 nM
CCOc1nc(C(=O)NS(=O)(=O)c2c(OC)cccc2OC)ccc1Cn1cccn1 [Compound 289, 5-((1H-pyrazol-1-yl)methyl)-N-((2,6-dimethoxyphenyl)sulfonyl)-6-ethoxypicolinamide]	19 nM
COc1cc(C(=O)N[S@@](=N)(=O)c2cc(C(C)(C)CO)ccc2OC)ccc1Cn1cccn1 [Compound 291a, (R)-4-((1H-pyrazol-1-yl)methyl)-N-(5-(1-hydroxy-2-methylpropan-2-yl)-2-methoxyphenylsulfonimidoyl)-3-methoxybenzamide]	93 nM
COc1cc(C(=O)N[S@](=N)(=O)c2cc(C(C)(C)CO)ccc2OC)ccc1Cn1cccn1 [Compound 291b, (S)-4-((1H-pyrazol-1-yl)methyl)-N-(5-(1-hydroxy-2-methylpropan-2-yl)-2-methoxyphenylsulfonimidoyl)-3-methoxybenzamide]	9 nM
COc1cc(C(=O)N[S@@](=N)(=O)c2c(OC)cccc2OC)ccc1Cn1cccn1 [Compound 295a, (R)-4-((1H-pyrazol-1-yl)methyl)-N-(2,6-dimethoxyphenylsulfonimidoyl)-3-methoxybenzamide]	16 nM
COc1cc(C(=O)N[S@](=N)(=O)c2c(OC)cccc2OC)ccc1Cn1cccn1 [Compound 295b, (S)-4-((1H-pyrazol-1-yl)methyl)-N-(2,6-dimethoxyphenylsulfonimidoyl)-3-methoxybenzamide]	271 nM
COc1cccc(OC2CCC2)c1[S@](=N)(=O)NC(=O)c1ccc(Cn2cccn2)c(OC)n1 [Compound 298a, (R)-5-((1H-pyrazol-1-yl)methyl)-N-(2-cyclobutoxy-6-methoxyphenylsulfonimidoyl)-6-methoxypicolinamide]	23 nM
COc1cccc(OC2CCC2)c1[S@@](=N)(=O)NC(=O)c1ccc(Cn2cccn2)c(OC)n1 [Compound 298b, (S)-5-((1H-pyrazol-1-yl)methyl)-N-(2-cyclobutoxy-6-methoxyphenylsulfonimidoyl)-6-methoxypicolinamide]	511 nM
COc1cc(OC)c([S@](=N)(=O)NC(=O)c2ccc(Cn3cccn3)c(OC)c2)c(OC)c1 [Compound 299a, (R)-4-((1H-pyrazol-1-yl)methyl)-3-methoxy-N-(2,4,6-trimethoxyphenylsulfonimidoyl)benzamide]	15 nM
COc1cc(OC)c([S@@](=N)(=O)NC(=O)c2ccc(Cn3cccn3)c(OC)c2)c(OC)c1 [Compound 299b, (S)-4-((1H-pyrazol-1-yl)methyl)-3-methoxy-N-(2,4,6-trimethoxyphenylsulfonimidoyl)benzamide]	226 nM
COc1cccc(OC)c1[S@](=N)(=O)NC(=O)c1ccc(Cn2cccn2)c(OC(F)(F)F)c1 [Compound 300a, (R)-4-((1H-pyrazol-1-yl)methyl)-N-(2,6-dimethoxyphenylsulfonimidoyl)-3-(trifluoromethoxy)benzamide]	125 nM
COc1cccc(OC)c1[S@@](=N)(=O)NC(=O)c1ccc(Cn2cccn2)c(OC(F)(F)F)c1 [Compound 300b, (S)-4-((1H-pyrazol-1-yl)methyl)-N-(2,6-dimethoxyphenylsulfonimidoyl)-3-(trifluoromethoxy)benzamide]	18 nM

Second part, the compound after the results:

IC50	SMILES
10 nM	COc1cc(Cl)cc(OC)c1S(=O)(=O)NC(=O)c1ccc(Cn2cccn2)c(OC)n1 [Compound 283, 5-((1H-pyrazol-1-yl)methyl)-N-((4-chloro-2,6-dimethoxyphenyl)sulfonyl)-6-methoxypicolinamide]
8 nM	COc1cc(F)c(S(=O)(=O)NC(=O)c2ccc(Cn3cccn3)c(OC)n2)c(OC)c1 [Compound 288, 5-((1H-pyrazol-1-yl)methyl)-N-((2-fluoro-4,6-dimethoxyphenyl)sulfonyl)-6-methoxypicolinamide]
14 nM	COc1ccc(C(C)(C)CO)cc1[S@](=N)(=O)NC(=O)c1ccc(Cn2cccn2)c(OC)n1 [Compound 290a, (R)-5-((1H-pyrazol-1-yl)methyl)-N-(5-(1-hydroxy-2-methylpropan-2-yl)-2-methoxyphenylsulfonimidoyl)-6-methoxypicolinamide]
33 nM	COc1ccc(C(C)(C)CO)cc1[S@@](=N)(=O)NC(=O)c1ccc(Cn2cccn2)c(OC)n1 [Compound 290b, (S)-5-((1H-pyrazol-1-yl)methyl)-N-(5-(1-hydroxy-2-methylpropan-2-yl)-2-methoxyphenylsulfonimidoyl)-6-methoxypicolinamide]
374 nM	COc1ccc(Cl)c(OC)c1[S@](=N)(=O)NC(=O)c1ccc(Cn2cccn2)c(OC)n1 [Compound 293a, (R)-5-((1H-pyrazol-1-yl)methyl)-N-(3-chloro-2,6-dimethoxyphenylsulfonimidoyl)-6-methoxypicolinamide]
16 nM	COc1ccc(Cl)c(OC)c1[S@@](=N)(=O)NC(=O)c1ccc(Cn2cccn2)c(OC)n1 [Compound 293b, (S)-5-((1H-pyrazol-1-yl)methyl)-N-(3-chloro-2,6-dimethoxyphenylsulfonimidoyl)-6-methoxypicolinamide]
271 nM	CCOc1cccc(OC)c1[S@](=N)(=O)NC(=O)c1ccc(Cn2cccn2)c(OC)n1 [Compound 294a, (R)-5-((1H-pyrazol-1-yl)methyl)-N-(2-ethoxy-6-methoxyphenylsulfonimidoyl)-6-methoxypicolinamide]
22 nM	CCOc1cccc(OC)c1[S@@](=N)(=O)NC(=O)c1ccc(Cn2cccn2)c(OC)n1 [Compound 294b, (S)-5-((1H-pyrazol-1-yl)methyl)-N-(2-ethoxy-6-methoxyphenylsulfonimidoyl)-6-methoxypicolinamide]
16 nM	COc1cc(OC)c([S@](=N)(=O)NC(=O)c2ccc(Cn3cccn3)c(OC)n2)c(OC)c1 [Compound 296a, (R)-5-((1H-pyrazol-1-yl)methyl)-6-methoxy-N-(2,4,6-trimethoxyphenylsulfonimidoyl)picolinamide]
677 nM	COc1cc(OC)c([S@@](=N)(=O)NC(=O)c2ccc(Cn3cccn3)c(OC)n2)c(OC)c1 [Compound 296b, (S)-5-((1H-pyrazol-1-yl)methyl)-6-methoxy-N-(2,4,6-trimethoxyphenylsulfonimidoyl)picolinamide]
313 nM	COc1ccc(C)c(OC)c1[S@](=N)(=O)NC(=O)c1ccc(Cn2cccn2)c(OC)n1 [Compound 301a, (R)-5-((1H-pyrazol-1-yl)methyl)-N-(2,6-dimethoxy-3-methylphenylsulfonimidoyl)-6-methoxypicolinamide]
17 nM	COc1ccc(C)c(OC)c1[S@@](=N)(=O)NC(=O)c1ccc(Cn2cccn2)c(OC)n1 [Compound 301b, (S)-5-((1H-pyrazol-1-yl)methyl)-N-(2,6-dimethoxy-3-methylphenylsulfonimidoyl)-6-methoxypicolinamide]
21 nM	COc1cc(C(=O)N[S@@](=N)(=O)c2c(OC)ccc(Cl)c2OC)ccc1Cn1cccn1 [Compound 302a, (R)-4-((1H-pyrazol-1-yl)methyl)-N-(3-chloro-2,6-dimethoxyphenylsulfonimidoyl)-3-methoxybenzamide]
